Conditions: 343.16 K, Liquid, Vibrating tube method

CCCCC(=O)OCC(COC(=O)CCCC)(COC(=O)CCCC)COC(=O)CCCC [pentaerythritol tetrapentanoate]
Conditions | mass density [kg/m3]
3535.3 kPa | 981.2
3629.9 kPa | 981.3
3647.8 kPa | 981.5
3662.8 kPa | 981.3
3677.4 kPa | 981.3
3695.4 kPa | 981.4
3713.8 kPa | 981.4
3733.2 kPa | 981.4
3754.8 kPa | 981.5
3785.2 kPa | 981.5
3811.5 kPa | 981.5
3838.2 kPa | 981.6
3865.5 kPa | 981.5
5098.9 kPa | 982.6
5142.8 kPa | 982.5
5167.8 kPa | 982.6
5186.3 kPa | 982.5
5201 kPa | 982.6
5210.3 kPa | 982.5
5224.5 kPa | 982.5
5255.1 kPa | 982.6
5300.5 kPa | 982.6
5325.2 kPa | 982.7
5345.4 kPa | 982.7
5483.5 kPa | 982.9
5624.6 kPa | 983
5676.1 kPa | 983
5700.4 kPa | 982.9
5724.9 kPa | 982.9
5754 kPa | 983
5779.4 kPa | 983.1
5804.5 kPa | 983.1
5829.4 kPa | 982.9
5859.3 kPa | 983
5884.9 kPa | 983.1
5910.4 kPa | 983.1
5937.2 kPa | 983
5968 kPa | 983.3
5994 kPa | 983.1
6020.7 kPa | 983.2
6053.2 kPa | 983.2
6080.4 kPa | 983.2
6108.6 kPa | 983.3
6137.6 kPa | 983.3
6165.8 kPa | 983.2
6199.5 kPa | 983.3
6228 kPa | 983.4
6262.9 kPa | 983.4
6292.8 kPa | 983.4
6323.1 kPa | 983.4
6352.3 kPa | 983.4
6382.9 kPa | 983.5
6408.4 kPa | 983.5
6433.7 kPa | 983.5
6459.6 kPa | 983.5
6491.2 kPa | 983.7
6518.6 kPa | 983.6
6545.1 kPa | 983.6
6572.4 kPa | 983.7
6599.5 kPa | 983.7
6632.2 kPa | 983.7
6659.3 kPa | 983.6
6686.8 kPa | 983.6
6719.6 kPa | 983.7
6747.4 kPa | 983.8
6804.2 kPa | 983.8
6838.6 kPa | 983.8
6899.2 kPa | 983.8
6929.1 kPa | 983.9
6959.5 kPa | 983.9
6989.5 kPa | 984
7026.2 kPa | 983.9
7056.7 kPa | 984
7088 kPa | 984.1
7120.1 kPa | 984.1
7261.4 kPa | 984.1
7294.7 kPa | 984.3
7328.4 kPa | 984.1
7396.9 kPa | 984.2
7437.8 kPa | 984.2
7472.9 kPa | 984.3
